Experiment [1] can be described thus: Luminescence Cell-Based Dose Confirmation HTS to Identify Activators of 5'UTR Stem-Loop Driven Alpha-Synuclein mRNA Translation in H4 Neuroglioblastoma Cells. [Related pubchem assays: 1829 (Project Summary), 1814 (Primary HTS)]. The class given is functional.
Experiment [2] is described as follows: Luminescence Cell-Based Dose Response HTS to Identify Activators of Luciferase Translation or Activity in H4 […] Cells. [Related pubchem assays: 1829 (Project Summary), 1814 (Primary HTS)]. The format is functional.
Experiment [3] has as its system H4. The experiment can be described thus: Luminescence Cell-Based Dose Response HTS to Identify Activators of 5'UTR Stem-Loop Driven Prion Protein mRNA Translation in H4 Neuroglioblastoma Cells. [Related pubchem assays: 1829 (Project Summary), 1814 (Primary HTS)]. The format is functional. Particulars: Homo sapiens.
Experiment [4] deals with T1, Carboxy-terminal domain RNA polymerase II polypeptide A small phosphatase 1 (Homo sapiens, UniProt Q9GZU7).
T1 sequence (Q9GZU7 whole entry): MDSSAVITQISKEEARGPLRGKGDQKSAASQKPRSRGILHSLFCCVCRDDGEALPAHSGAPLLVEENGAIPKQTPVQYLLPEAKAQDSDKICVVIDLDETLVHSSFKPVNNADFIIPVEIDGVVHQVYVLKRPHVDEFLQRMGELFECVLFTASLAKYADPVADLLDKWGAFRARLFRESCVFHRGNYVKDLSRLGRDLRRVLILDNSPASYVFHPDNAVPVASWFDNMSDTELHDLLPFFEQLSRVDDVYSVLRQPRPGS
Put plainly: inhibitors of CTDSP1, concentration-response testing, biochemical assay, absorbance-based, actives from ultra-high-throughput screening (AID 540297). The class given is functional.

Experiment [5] deals with Cytochrome P450 2D6 (Homo sapiens, UniProt P10635).
Chain of Cytochrome P450 2D6 (P10635 whole entry): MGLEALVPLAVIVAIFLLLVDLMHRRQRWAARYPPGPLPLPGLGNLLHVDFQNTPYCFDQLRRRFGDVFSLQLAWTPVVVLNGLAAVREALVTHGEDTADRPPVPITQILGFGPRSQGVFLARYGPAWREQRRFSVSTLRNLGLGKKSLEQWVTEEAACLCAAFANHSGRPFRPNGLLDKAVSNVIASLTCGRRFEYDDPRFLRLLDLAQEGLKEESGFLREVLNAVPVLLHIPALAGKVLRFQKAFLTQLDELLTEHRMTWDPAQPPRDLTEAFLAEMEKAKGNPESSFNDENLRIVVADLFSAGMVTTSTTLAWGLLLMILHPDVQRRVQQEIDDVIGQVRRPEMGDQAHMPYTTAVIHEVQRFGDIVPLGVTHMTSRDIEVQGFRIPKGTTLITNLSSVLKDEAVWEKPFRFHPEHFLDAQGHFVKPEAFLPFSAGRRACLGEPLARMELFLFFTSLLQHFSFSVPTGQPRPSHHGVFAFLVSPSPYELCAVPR
The nature of experiment [6]: HEp-2 cell cytotoxicity, dose response, cytotoxicity control for RSV inhibitor project, HTS (AID 2410). The class given is functional. Particulars: human respiratory syncytial virus.
The nature of experiment [7]: inhibitors of intracellular T. cruzi replication, confirmation, NIH3T3 host cells, beta-gal luminescence (AID 2044).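 Further: intracellular parasites grown in NIH/3T3 mouse fibroblasts as host cells; luminescent beta-galactosidase reporter signal from transgenic T. cruzi replicating inside host cells; inhibitors lower the luminescence signal.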 The class given is functional, cell-based.
Experiment [8] can be described thus: cytotoxicity toward NIH3T3 fibroblasts, dose response, counter-screen, cell-based, ATP luminescence, mouse fibroblasts (AID 2010).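 Further: cells exposed to compound for about 90 hours before reading.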 The format is functional. For orientation: The purpose of a counterscreen is to sort out artefacts and off-target activity.
Experiment [9] concerns H9c2. Put plainly: cells. The format is functional, cell-based. Particulars: Rattus norvegicus, H9c2, Myocardium.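 Further: confirmatory concentration-response retest of ultra-high-throughput screening hits for modulation of myocardial damage; cell death induced by hydrogen peroxide oxidative stress; compound pretreatment for 60 min then peroxide exposure for 2 h; potency is for protecting the cells against peroxide damage rather than for killing them.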
The target of experiment [10] is Luciferin 4-monooxygenase (Photinus pyralis, UniProt P08659). Put plainly: firefly luciferase enzyme inhibitors, dose response, biochemical, luminescence (AID 1891).
Chain of Luciferin 4-monooxygenase (P08659 whole entry): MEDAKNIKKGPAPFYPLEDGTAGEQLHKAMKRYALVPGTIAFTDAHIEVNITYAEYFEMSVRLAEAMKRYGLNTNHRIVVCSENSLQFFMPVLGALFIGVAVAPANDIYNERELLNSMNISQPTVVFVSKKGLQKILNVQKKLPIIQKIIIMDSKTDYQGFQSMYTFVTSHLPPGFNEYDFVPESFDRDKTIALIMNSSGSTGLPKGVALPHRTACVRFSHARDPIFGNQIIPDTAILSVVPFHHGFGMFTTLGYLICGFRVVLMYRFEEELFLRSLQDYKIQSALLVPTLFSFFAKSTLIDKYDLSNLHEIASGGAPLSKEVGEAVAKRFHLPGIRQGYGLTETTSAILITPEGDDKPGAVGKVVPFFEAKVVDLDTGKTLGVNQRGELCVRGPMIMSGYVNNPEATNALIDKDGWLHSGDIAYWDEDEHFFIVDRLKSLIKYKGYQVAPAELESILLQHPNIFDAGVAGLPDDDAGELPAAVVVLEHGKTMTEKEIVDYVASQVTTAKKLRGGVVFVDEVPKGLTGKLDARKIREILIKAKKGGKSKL
Experiment [11] in a line: Luminescence Cell-Based Dose Confirmation HTS to Identify Inhibitors of Platelet Dense Granule Release. [Related pubchem assays: 1663 (Primary HTS), 1678 (Summary of Project)]. The format is functional.
Experiment [12] deals with T2, Replicative DNA helicase DnaB (Mycobacterium tuberculosis, UniProt P9WMR3).
T2 sequence (P9WMR3 whole entry): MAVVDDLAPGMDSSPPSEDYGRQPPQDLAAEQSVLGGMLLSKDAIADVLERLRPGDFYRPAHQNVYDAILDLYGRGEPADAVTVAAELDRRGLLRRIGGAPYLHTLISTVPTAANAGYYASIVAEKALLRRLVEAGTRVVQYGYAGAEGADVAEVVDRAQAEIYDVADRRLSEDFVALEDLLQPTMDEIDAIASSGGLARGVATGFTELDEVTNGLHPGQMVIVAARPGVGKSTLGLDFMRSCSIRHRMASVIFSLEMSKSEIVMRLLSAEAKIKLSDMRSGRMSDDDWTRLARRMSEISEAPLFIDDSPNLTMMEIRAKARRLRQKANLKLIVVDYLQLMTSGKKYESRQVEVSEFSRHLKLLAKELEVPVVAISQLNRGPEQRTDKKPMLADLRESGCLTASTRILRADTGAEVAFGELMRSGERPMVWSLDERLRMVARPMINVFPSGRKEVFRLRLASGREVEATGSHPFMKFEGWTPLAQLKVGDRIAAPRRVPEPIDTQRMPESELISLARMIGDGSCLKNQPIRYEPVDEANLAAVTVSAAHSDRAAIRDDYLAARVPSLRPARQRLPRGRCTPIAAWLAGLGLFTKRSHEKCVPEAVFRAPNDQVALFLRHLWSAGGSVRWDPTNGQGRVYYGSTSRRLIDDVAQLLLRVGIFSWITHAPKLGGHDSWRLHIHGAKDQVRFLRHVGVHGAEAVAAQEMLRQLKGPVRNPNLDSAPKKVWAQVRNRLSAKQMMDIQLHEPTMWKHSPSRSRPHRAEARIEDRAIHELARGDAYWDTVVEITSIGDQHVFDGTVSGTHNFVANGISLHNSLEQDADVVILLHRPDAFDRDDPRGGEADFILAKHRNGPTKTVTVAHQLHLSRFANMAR
The experiment can be described thus: DnaB intein splicing inhibitors, dose response, biochemical, cell-free fluorescence (AID 449749). The format is functional.

For experiment [13], the target named is T3, Protein RecA (Mycobacterium tuberculosis, UniProt P9WHJ3).
T3 sequence (P9WHJ3 whole entry): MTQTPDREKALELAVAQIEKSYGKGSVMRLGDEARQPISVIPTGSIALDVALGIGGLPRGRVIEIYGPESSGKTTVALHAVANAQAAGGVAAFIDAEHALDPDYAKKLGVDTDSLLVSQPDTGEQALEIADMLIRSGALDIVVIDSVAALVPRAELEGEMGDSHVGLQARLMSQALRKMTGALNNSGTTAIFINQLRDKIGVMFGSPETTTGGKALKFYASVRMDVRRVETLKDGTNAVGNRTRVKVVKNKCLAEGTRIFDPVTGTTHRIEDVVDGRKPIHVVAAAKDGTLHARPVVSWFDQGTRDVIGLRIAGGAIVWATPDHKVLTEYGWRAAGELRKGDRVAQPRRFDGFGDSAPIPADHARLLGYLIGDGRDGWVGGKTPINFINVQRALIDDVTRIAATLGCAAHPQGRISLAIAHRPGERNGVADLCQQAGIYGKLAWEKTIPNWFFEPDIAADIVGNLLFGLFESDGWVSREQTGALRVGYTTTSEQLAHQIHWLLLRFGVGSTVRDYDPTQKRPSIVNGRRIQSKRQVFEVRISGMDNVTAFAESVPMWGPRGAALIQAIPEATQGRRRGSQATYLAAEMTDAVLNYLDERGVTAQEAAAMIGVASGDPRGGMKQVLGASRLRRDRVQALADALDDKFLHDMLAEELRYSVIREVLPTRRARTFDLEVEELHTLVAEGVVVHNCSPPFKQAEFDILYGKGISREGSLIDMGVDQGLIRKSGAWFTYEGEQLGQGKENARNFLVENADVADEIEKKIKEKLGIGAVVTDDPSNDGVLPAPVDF
Put plainly: Fluorescence Cell-Free Homogeneous Dose Retest to Identify Inhibitors of RecA-Intein Splicing Activity. [Related pubchem assays (depositor defined):AID2097, AID2223, AID489010, AID492950]. The format is functional.

The target of experiment [14] is FAD-linked sulfhydryl oxidase ALR (Homo sapiens, UniProt P55789). The experiment can be described thus: inhibitors of human ALR sulfhydryl oxidase, dose response, biochemical, H2O2 detection, luminescence, cherry-pick (AID 493248).
Chain of FAD-linked sulfhydryl oxidase ALR (P55789 whole entry): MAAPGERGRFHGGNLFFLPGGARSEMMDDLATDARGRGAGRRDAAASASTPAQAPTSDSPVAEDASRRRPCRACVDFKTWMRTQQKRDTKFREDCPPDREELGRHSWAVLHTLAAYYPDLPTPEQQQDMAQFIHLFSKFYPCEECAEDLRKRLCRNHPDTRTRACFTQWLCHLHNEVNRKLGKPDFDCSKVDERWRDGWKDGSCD

Consider 31 compounds from ChEMBL document CHEMBL1201862, “PubChem BioAssay data set” (2004).

Active and inactive are the calls of the source. For most assays here, no stated cut-off is given here; in the data, actives have a measured EC50 and inactives only a lower limit. Some results are limits rather than exact numbers.

The term EC50 denotes the concentration that produces a half-maximal response. As for `CN1CCc2c(sc3nc(SCC(=O)NCc4ccco4)n(-c4ccccc4)c(=O)c23)C1`, the values for the EC50 in experiment [1], in experiment [2] and in [3] were 17.9 µM (active), 10.2 µM (active) and 25.5 µM (active), respectively.
As usually defined, the IC50 is the point on the concentration scale where inhibition reaches its midpoint. `CC(=O)Nc1ccc(N/C=C2\C(=O)NC(=O)N(Cc3ccco3)C2=O)cc1`: the IC50 in experiment [4] is 9.73 µM (active).
On to `O=C(N=Nc1c(O)n(C2OC(=O)c3ccccc32)c2ccccc12)c1ccco1` (configuration not stated), for which the EC50 in experiment [1] is 11.5 µM (active); in experiment [2], 11.4 µM (active); in [3] it was 15 µM (active).
Usually AC50 stands for the concentration giving half of the maximal activity seen. Turning to `CCn1c(CNC(=O)COc2ccc(C(C)C)cc2)nnc1SCC(=O)Nc1cc(F)ccc1C`, the IC50 in [4] is 16.7 µM (active). In experiment [5], the AC50 was 22.4 µM (inconclusive).
For `O=C(Nc1cccc(Cl)c1)c1ccc2ncsc2c1`, the EC50 is 4.28 µM (active) in experiment [1], 91.3 µM (active) in experiment [2] and 34.6 µM (active) in [3].
`Cc1ccc(NC(=O)CN(C)C(=O)c2cc(-c3ccco3)nc3ccccc23)cc1`: the half-inhibitory concentration (IC50) in [4] is 3.88 µM (active).
Usually CC50 stands for the concentration that lowers cell viability or growth by half. In the case of `Cc1c2c(nc3ccccc13)CCC(C(C)(C)C)C2` (configuration not stated), in [6], the CC50 was 44.4 µM (active). Further, the EC50 in experiment [1] was 26.6 µM (active); in experiment [2], 4.26 µM (active); in [3] it was 12.7 µM (active); in experiment [7], 3.67 µM (active); in experiment [8] it was > 60 µM (not active).
Regarding `Cc1cc(CNC(=O)COC(=O)Cn2[nH]c(=O)c3ccccc3c2=O)cc(C)c1O`, the IC50 in [9] was > 79 µM (inactive).
Consider `N#Cc1ccc(OCC(=O)Nc2nc(-c3ccccn3)cs2)cc1`, for which, in [9], the IC50 is > 79 µM (inactive).
Take `Cc1nn(-c2ccccc2)c(Cl)c1C(=O)NNC(=O)c1ccccc1O`: in experiment [9], the IC50 is 13 µM (active).
As for `COc1ccc(OC)c([N+](=O)[O-])c1C(N)=O`, the IC50 in [4] was 3.49 µM (active).
For the compound `COc1cc(C2NC(S)=NC(C)=C2C(=O)Nc2ccc(C)cc2)ccc1O` (configuration not stated), the EC50 was 15.1 µM (active) in [1], 22.4 µM (active) in [2] and 21.8 µM (active) in experiment [3].
With `Cc1cc2ccccn2c1C(=O)c1ccc(N/N=C/c2ccc(C(=O)O)cc2)c([N+](=O)[O-])c1`, in [4], the IC50 is 1.02 µM (active).
Regarding `Cc1ccc(C(=O)O)cc1-c1ccc(C=C2C(=O)c3ccccc3C2=O)o1`, the IC50 in experiment [4] was 13.7 µM (active).
Turning to `COC(=O)c1cc(Cl)c(NC(=O)/C=C/c2ccc(OC)c(OC)c2)cc1OC`, the IC50 in experiment [9] was 22.1 µM (active).
`N#CC1=C(N)C(C#N)(C#N)C(c2cccnc2)C2CN(C(=O)OCc3ccccc3)CC=C12` (configuration not stated): the results for the EC50 in experiment [10], in experiment [11] and in experiment [13] were > 112 µM (not active), 15.6 µM (active) and 2.59 µM (active), respectively. Besides, in experiment [12], the AC50 is > 380 µM (inactive).
As to `COc1ccccc1OP(=O)(Nc1cccnc1)Oc1ccccc1OC`, in experiment [9], the IC50 was > 79 µM (inactive).
On to `O=C(Nc1cc(=O)c2ccccc2o1)N1CCCCC1`, for which the IC50 in [9] is 22.8 µM (active).
With `CC1(C(=O)Nc2cccc(OC(F)(F)F)c2)Cc2c(-c3ccc(C(N)=O)cc3)ccnc2O1` (configuration not stated), the IC50 in experiment [9] was > 79 µM (inactive).
Turning to `O=C(COC(=O)c1ccc(Cl)c(S(=O)(=O)N2CCCCC2)c1)NCc1ccco1`, the IC50 in experiment [4] is 13.8 µM (active).
`CCCCNC(=O)Nc1ccc(Br)cn1`: the EC50 in [10] and in experiment [11] was > 112 µM (not active) each time.
Consider `O=C(COc1ccccc1[N+](=O)[O-])Nc1ccc(NC(=O)c2cc3ccccc3o2)cc1`, for which the EC50 in experiment [1], in [2] and in experiment [3] was > 120 µM (not active) throughout.
With `c1ccc(-c2ccc(-c3n[nH]cc3CN3CCC(N4CCSCC4)CC3)cc2)cc1`, the EC50 is 14.4 µM (active) in experiment [1], 15.8 µM (active) in experiment [2] and 12.4 µM (active) in [3].
As to `Cc1ccc(-n2c(C)nc3c(cnn3-c3ccc(C)c(C)c3)c2=O)cc1C`, in experiment [6], the CC50 was 48.5 µM (active). Moreover, the figures for the EC50 in [1], in experiment [2] and in experiment [3] were 10.2 µM (active), 8.78 µM (active) and 43.9 µM (active), respectively.
Take `COn1c(=O)c(=O)n(O)c2ccccc21`: the EC50 in [10] and in experiment [11] was > 112 µM (not active) each time.
As to `CC(=O)c1ccc(-c2cnc3c(NC=O)cc(-c4cccc(NS(C)(=O)=O)c4)cn23)cc1`, the IC50 in experiment [9] is > 79 µM (inactive).
In the case of `CCCn1c(C2CC(=O)N(c3cc(OC)ccc3OC)C2)nc2ccccc21` (configuration not stated), the EC50 in experiment [10] and in experiment [11] was > 112 µM (not active) each time.
On to `CN(C)c1ccc(NC(=O)CN2CCN(S(=O)(=O)c3cc(Cl)ccc3Cl)CC2)cc1`, for which the EC50 in experiment [10] and in experiment [11] was > 112 µM (not active) throughout. Also, the AC50 in experiment [14] was 2.31 µM (active).
For the compound `COCC(C)n1c(C)cc(C(=O)COC(=O)c2c(NC(C)=O)sc(C)c2C)c1C` (configuration not stated), the IC50 in [4] is 9.88 µM (active).
As for `CCc1nc(N2CCN(C(=O)c3ccco3)CC2)c2oc3ccccc3c2n1`, the EC50 in experiment [10] and in experiment [11] was > 112 µM (not active) in each case. Also, in [9], the IC50 is > 79 µM (inactive).
For the compound `Cc1ccc(S(=O)(=O)N2CCN(C(=O)COC(=O)CCOc3ccccc3C)CC2)c(C)c1`, the IC50 in experiment [4] was 10.7 µM (active).
